Data on one compound can be found in article PMC10386886, “First-in-class multifunctional TYMS nonclassical antifolate inhibitor with potent in vivo activity that prolongs survival” (JCI Insight, 2023).

The target of one data set is T1, purified human TYMS (Homo sapiens, UniProt P04818).
T1 construct: 6xHis (N); made in house; host or cells: E. coli BL21 (DE3), vector pQE80L-hTYMS
As to the kind of experiment: Tritium-based TYMS catalytic activity assay. The class given is biochemical. How it is done: To determine the inhibition of TYMS activity, we utilized a tritium-based TYMS catalytic assay (Figure 1A) to quantify the conversion of dUMP, which is proportional to TYMS activity ([33]). The assay was based on a previously published protocol ([33]) and modified to determine the amount of purified human TYMS (hTYMS) to be used in the conversion of dUMP to dTMP. […]
Tritium based TYMS catalytic activity assay
The catalytic activity of TYMS was determined by measuring the release of [3H] from [5-3H]dUMP (ViTrax, Cat # VT122) resulting from the conversion of dUMP to dTMP as previously described (2, 3).
The reaction conditions were optimized to determine the amount of TYMS protein needed to establish […]
reactions performed without TYMS or without the 5,10-methylene tetrahydrofolate (5,10-mTHF) cofactor (Supplemental Figure 2 and Supplemental methods). Reactions were performed in 50 mM KH2PO4 (Sigma Aldrich, Cat # P0662) at pH 7.2 using 2 µg of purified human TYMS. Reactions were performed in a final volume of 200 µL with 100 mM β-mercaptoethanol (Sigma Aldrich, Cat # M7522), 40 µM dUMP (Sigma Aldrich, Cat # D3876), 100 µM 5,10-mTHF, and the [5-3H]dUMP tracer (ViTrax, Cat # VT122) accounting for 0.06% of the final dUMP concentration in the reaction. The 5,10-mTHF used in the reaction was separately generated from tetrahydrofolic acid (Sigma Aldrich, Cat # T3125) by dissolving the solid in 10 mM KH2PO4 with 143 mM β-mercaptoethanol (1:100 from 14.3 M pure liquid), and 6.35 mM formaldehyde (Sigma Aldrich, Cat # 47608) to yield a 100 mM stock solution of 5,10- mTHF. Reactions were initiated by the addition of the dUMP substrate and 5,10-mTHF cofactor, then incubated at 37 °C for 30 minutes. […]
before the reaction was initiated by the addition of the dUMP substrate and 5,10-mTHF cofactor.
Reactions were terminated by the addition of 100 µL of ice-cold 20% trichloroacetic acid (Sigma Aldrich, Cat # T6399), then excess [5-3H]dUMP was removed by the addition of 200 µL of an albumin-coated activated charcoal solution. The albumin-coated activated charcoal solution was prepared by mixing 10 g of acid- washed activated dextran coated charcoal (Sigma Aldrich, Cat # C6241) with 2.5 g of bovine albumin (Sigma Aldrich, Cat # A1933) in 100 mL of H2O. The suspension was incubated at room temperature for 30 minutes and then centrifuged for 30 minutes at 10,000 x g. Then 150 µL of the supernatant was collected and added to 5 mL of ultima gold liquid scintillation cocktail (Perkin Elmer, Cat # 6013326, lot: 77-19085), and scintillation measurements were perform using a liquid scintillation counter (Beckman Coulter LS6500) to determine [3H]H2O levels in each sample. For all experiments, positive control reactions were performed with no drug representing 100% TYMS activity, and negative

The nature of the next data set: in vivo. The following applies: NSG, mouse, po.
The test system of data set [1] is Luc-PANC-1 xenograft tumors. As to the kind of experiment: Luc-PANC-1 subcutaneous xenograft tumor model. The class given is in vivo. The following applies: 25 mg/kg PO, 4 cycles, Figure 9. An excerpt:
In the subcutaneous tumor model, the resulting Luc-PANC-1 xenograft tumors were monitored by direct tumor measurements and bioluminescence photon flux that is proportional to tumor size. […] Treatment was initiated 30 days after Luc-PANC-1 cell line subcutaneous injections (5 × 10^6 cells), when tumors reached 100 mm^3 in volume, generating a bioluminescence photon flux of 3 × 10^9 to 4 × 10^9 photons/s. […] Tumors from both treatment groups were excised, and the tumor mass was weighed (Figure 2E).
Luc-PANC-1 (5 × 10^6) and Luc-CM (0.5 × 10^6) cells were resuspended in 200 μL of PBS and injected subcutaneously or IP, respectively, into 6- to 8-week-old NSG mice. Tumor-bearing mice were imaged using Xenogen IVIS Lumina Bioluminescence Imaging System (PerkinElmer) every week after cell injection. […] For all animals, body weight was recorded weekly, and Luc-PANC-1 tumor volume was measured weekly with a caliper. For scheduled sacrifice experiments, animals were euthanized after 4 weeks of treatment. […] Tumor volume was calculated as volume = 0.52(length × width^2).
Prior to bioluminescence imaging the region where tumors were located was shaved. […] Following the injection of the D-luciferin substrate mice, were imaged using the Xenogen IVIS Lumina Bioluminescence Imaging System (PerkinElmer). The peak of luciferase photon flux was recorded 6 minutes after injection of the D-luciferin substrate. The total photon flux was analyzed and restricted to tumor region of interest using Living Image v2.60.1 software (Imaging Systems).

T1 sequence (P04818 whole entry): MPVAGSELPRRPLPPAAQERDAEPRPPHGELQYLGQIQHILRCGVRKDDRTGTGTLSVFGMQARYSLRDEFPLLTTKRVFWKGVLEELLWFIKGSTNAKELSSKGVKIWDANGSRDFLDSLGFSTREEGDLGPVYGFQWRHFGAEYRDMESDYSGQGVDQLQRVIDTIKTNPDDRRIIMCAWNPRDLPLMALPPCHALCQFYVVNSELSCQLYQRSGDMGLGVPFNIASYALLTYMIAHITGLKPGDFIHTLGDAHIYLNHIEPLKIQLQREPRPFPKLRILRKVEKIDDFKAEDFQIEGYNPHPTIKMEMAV
Experimental for in vivo: Maximum tolerated dose (MTD)
experiment) or 5, 10, 25 or 50 mg/kg of 5-FU daily during 5 consecutive days. After 3 treatment cycles,
animals rested (no treatment) for one more week before euthanasia. Body weight and physical status
of all mice were closely monitored. Tissues were collected and fixed in alcoholic formalin to test for
daily during 5 consecutive days for 3 weeks. After 3 treatment cycles, animals rested (no treatment) for
one more week before euthanasia. Body weight and physical status of all mice were closely monitored.
Tissues were collected and fixed in alcoholic formalin to test for toxicity.
Specimens were fixed in alcoholic formalin for 48h and then transferred to 70% ethanol, processed and
embedded in paraffin. Tissues were serially sectioned and stained by conventional H&E. Slides were

In the case of `CCc1nc(N)nc(N)c1-c1ccc(N(C)Cc2ccc3c(c2)OCO3)c([N+](=O)[O-])c1` [Compound 19-S7], at purified human TYMS (250 μM, Figure 6A), the “TS activity, screen of 19-S series analogs” value is reported as “inhibited TYMS activity”. In addition, the “TS activity, comparison at decreasing drug concentrations” value on purified human TYMS (Figure 6C) is “greater TYMS inhibition than both MTX and PEM”. Further, the MTD at 3 weeks in the data set “in vivo” worked out at 25 mg/kg. Further, in data set [1], the Bioluminescence photon flux result is on record as “reduced bioluminescence photon flux”; the Body weight result is “did not show adverse effects on or declines in body weight”; the “Final excised tumor mass” value is on record as “reduced mass of the final excised tumors”; the Tumor volume entry was “reduced and stable tumor volumes”.
